Measurements: US9314026B2, “Heterocyclylpyri(mi)dinylpyrazole” (Bayer Intellectual Property GmbH, priority 2011, dated 2016)

Tests used:
Septoria tritici = test: Septoria tritici-test (wheat)/preventive; type: in vivo; settings: 500 ppm of active ingredient, preventive, evaluated 21 days after inoculation
Protocol: Septoria tritici-Test (Wheat)/Preventive Solvent: 49 parts by weight of n,n-dimethylacetamid Emulsifier: 1 part by weight of alkylaryl polyglycol ether To produce a suitable preparation of active compound, 1 part by weight of active compound or active compound combination is mixed with the stated amounts of solvent and emulsifier, and the concentrate is diluted with water to the desired concentration. To test for preventive activity, young plants are sprayed with the preparation of active compound or active compound combination at the stated rate of application. After the spray coating has been dried, the plants are sprayed with a spore suspension of Septoria tritici.

Fusarium graminearum = test: whole plant or invertebrate; type: in vivo; settings: in Hordeum vulgare, 120 h, read-out: efficacy
[1] = test system: Fusarium nivale (var. majus); test: Fusarium nivale (var. majus)-test (wheat)/preventive; type: in vivo; settings: Microdochium nivale, 120 h, 500 ppm of active ingredient, preventive, evaluated 5 days after inoculation, read-out: efficacy
Protocol: Fusarium nivale (Var. Majus)-Test (Wheat)/Preventive Solvent: 49 parts by weight of n,n-dimethylacetamid Emulsifier: 1 part by weight of alkylaryl polyglycol ether To produce a suitable preparation of active compound, 1 part by weight of active compound or active compound combination is mixed with the stated amounts of solvent and emulsifier, and the concentrate is diluted with water to the desired concentration. To test for preventive activity, young plants are sprayed with the preparation of active compound or active compound combination at the stated rate of application. After the spray coating has been dried, the plants are slightly injured by using a sandblast and afterwards they are sprayed with a conidia suspension of Fusarium nivale (var. majus).

Sphaerotheca fuliginea = test: Sphaerotheca test (cucumber)/preventive; type: in vivo; settings: Podosphaera fuliginea, 168 h, 500 ppm of active ingredient, preventive, evaluated 7 days after inoculation, 0% = untreated control, 100% = no disease, read-out: efficacy
Protocol: (§1) Sphaerotheca Test (Cucumber)/Preventive Solvent: 49 parts by weight of N,N-Dimethylformamide Emulsifier: 1 part by weight of Alkylarylpolyglycolether To produce a suitable preparation of active compound, 1 part by weight of active compound is mixed with the stated amounts of solvent and emulsifier, and the concentrate is diluted with water to the desired concentration. To test for preventive activity, young plants are sprayed with the preparation of active compound at the stated rate of application. One day after this treatment, the plants are inoculated with an aqueous spore suspension of Sphaerotheca fuliginea.

Pyrenophora teres = test: Pyrenophora test (barley)/preventive; type: in vivo; settings: 500 ppm of active ingredient, preventive, evaluated 7-9 days after inoculation, read-out: efficacy
Protocol: as §1, with “Pyrenophora” for “Sphaerotheca”, “(Barley)/Preventive” for “(Cucumber)/Preventive”, “Pyrenophora teres.” for “Sphaerotheca fuliginea.”

Puccinia recondita = test: Puccinia test (wheat)/preventive; type: in vivo; settings: 500 ppm of active ingredient, preventive, evaluated 7-9 days after inoculation, read-out: efficacy
Protocol: as §1, with “Puccinia” for “Sphaerotheca”, “(Wheat)/Preventive” for “(Cucumber)/Preventive”, “Puccinia recondita.” for “Sphaerotheca fuliginea.”

Alternaria solani = test: Alternaria test (tomato)/preventive; type: in vivo; settings: 168 h, 500 ppm of active ingredient, preventive, evaluated 7 days after inoculation, read-out: efficacy
Protocol: as §1, with “Alternaria” for “Sphaerotheca”, “(Tomato)/Preventive” for “(Cucumber)/Preventive”, “Alternaria solani. […] Then the plants are placed in an incubation cabinet at approximately 20° C. and a relative atmospheric humidity of 96%.” for “Sphaerotheca fuliginea.”

[2] = determination of the log P values by HPLC on a reverse phase column (C18), EEC-Directive 79/831 Annex V.A8; type: physicochemical
Protocol: Method A Note on the determination of the log P values and mass detection: The stated log P values were determined in accordance with EEC-Directive 79/831 Annex V.A8 by HPLC (High Performance Liquid Chromatography) on a reverse phase column (C18). […] The mass detection was effected with an […] system. Method B Note on the determination of the log P values and mass detection: The stated log P values were determined in accordance with EEC-Directive 79/831 Annex V.A8 by HPLC (High Performance Liquid Chromatography) on a reverse phase column (C18). […] The mass detection was effected with the Micronass ZQ2000 mass detector from Waters. Method C Note on the determination of the log P values and mass detection: The stated log P values were determined in accordance with EEC-Directive 79/831 Annex V.A8 by UPLC (Ultra Performance Liquid Chromatography) on a reverse phase column (C18). […] The mass detection was effected with the LCT Premier or SQD mass detector from Waters.

Leptosphaeria nodorum = test: Leptosphaeria test (wheat)/preventive; type: in vivo; settings: Parastagonospora nodorum, 500 ppm of active ingredient, preventive, evaluated 7-9 days after inoculation, read-out: efficacy
Protocol: Leptosphaeria Test (Wheat)/Preventive Solvent: 49 parts by weight of N,N-Dimethylformamide Emulsifier: 1 part by weight of Alkylarylpolyglycolether To produce a suitable preparation of active compound, 1 part by weight of active compound is mixed with the stated amounts of solvent and emulsifier, and the concentrate is diluted with water to the desired concentration. To test for preventive activity, young plants are sprayed with a preparation of active compound at the stated rate of application. One day after this treatment, the plants are inoculated with an aqueous spore suspension of Leptosphaeria nodorum.

Botrytis cinerea = test: Botrytis test (beans)/preventive; type: in vivo; settings: 48 h, 100 ppm of active ingredient, preventive, size of lesions evaluated 2 days after inoculation, read-out: efficacy
Protocol: Botrytis Test (Beans)/Preventive Solvent: 24.5 parts by weight of acetone • 24.5 parts by weight of dimethylacetamide Emulsifier: 1 part by weight of alkylaryl polyglycol ether To produce a suitable preparation of active compound, 1 part by weight of active compound is mixed with the stated amounts of solvent and emulsifier, and the concentrate is diluted with water to the desired concentration. To test for preventive activity, young plants are sprayed with the preparation of active compound. After the spray coating has dried on, 2 small pieces of agar covered with growth of Botrytis cinerea are placed on each leaf.

Phytophthora infestans = test: whole plant or invertebrate; type: in vivo; settings: 72 h, read-out: efficacy
Pyricularia oryzae = test: whole plant or invertebrate; type: in vivo; settings: 168 h, read-out: efficacy
Venturia inaequalis = test: Venturia test (apples)/preventive; type: in vivo; settings: 100 ppm of active ingredient, preventive, evaluated 10 days after inoculation
Protocol: (§2) Venturia Test (Apples)/Preventive Solvent: 24.5 parts by weight of acetone • 24.5 parts by weight of dimethylacetamide Emulsifier: 1 part by weight of alkylaryl polyglycol ether To produce a suitable preparation of active compound, 1 part by weight of active compound is mixed with the stated amounts of solvent and emulsifier, and the concentrate is diluted with water to the desired concentration. To test for preventive activity, young plants are sprayed with the preparation of active compound at the stated rate of application.

Plasmopara viticola = test: Plasmopara test (grapevines)/preventive; type: in vivo; settings: 100 ppm of active ingredient, preventive, evaluated 6 days after inoculation
Protocol: as §2, with “Plasmopara” for “Venturia”, “(Grapevines)/Preventive” for “(Apples)/Preventive”, “application. […] The plants are then misted and placed for 1 day in an incubation cabinet.” for “application.”

Row | SMILES | efficacy (Septoria tritici) | pest or weed control at 500 ppm (Fusarium graminearum) | pest or weed control at 500 ppm [1] | pest or weed control at 500 ppm (Sphaerotheca fuliginea) | pest or weed control at 500 ppm (Pyrenophora teres) | pest or weed control at 500 ppm (Puccinia recondita) | pest or weed control at 500 ppm (Alternaria solani) | chromatographic logP [2] | pest or weed control at 500 ppm (Leptosphaeria nodorum) | pest or weed control at 100 ppm (Botrytis cinerea) | pest or weed control at 100 ppm (Phytophthora infestans) | pest or weed control at 500 ppm (Pyricularia oryzae) | efficacy (Venturia inaequalis) | efficacy (Plasmopara viticola)
1 | CC(=O)N(C(C)=O)c1cc(-c2c(-c3ccc(F)cc3)nn3c2CCOC3C)ccn1 (stereo not shown) [Example 10, N-acetyl-N-{4-[2-(4-fluorophenyl)-7-methyl-4,5-dihydropyrazolo[1,5-c][1,3]oxazin-3-yl]pyridin-2-yl}acetamide] | 80% | 94% | 100% | 95% | 95% | 95% | 90% | 2.56 | 90% |  |  |  |  | 
2 | CC(=O)N(C(C)=O)c1cc(-c2c(-c3ccsc3)nn3c2CCCC3)ccn1 [Example 4, N-acetyl-N-{4-[2-(3-thienyl)-4,5,6,7-tetrahydropyrazolo[1,5-a]pyridin-3-yl]pyridin-2-yl}acetamide] |  |  |  |  | 95% |  | 90% | 2.18 | 95% | 95% | 95% | 95% | 95% | 
3 | CC(=O)N(C(C)=O)c1cc(-c2c(-c3ccccc3)nn3c2CCCC3)ccn1 [Example 2, N-acetyl-N-[4-(2-phenyl-4,5,6,7-tetrahydropyrazolo[1,5-a]pyridin-3-yl)pyridin-2-yl]acetamide] | 100% | 100% | 100% | 96% | 100% | 100% | 100% | 2.22 | 95% | 87% | 95% | 70% | 71% | 
4 | CCOC(=O)N(C(=O)C1CC1)c1cc(-c2c(-c3ccc(F)cc3)nn3c2CCC3)ccn1 [Example 11, ethyl (cyclopropylcarbonyl){4-[2-(4-fluorophenyl)-5,6-dihydro-4H-pyrrolo[1,2-b]pyrazol-3-yl]pyridin-2-yl}carbamate] |  |  |  | 95% | 95% | 100% | 95% | 2.78 | 95% | 74% | 86% | 70% |  | 90%
5 | CCC(=O)N(C(=O)C(C)C)c1cc(-c2c(-c3ccc(F)cc3)nn3c2CCOC3C)ccn1 (stereo not shown) [Example 3, N-{4-[2-(4-fluorophenyl)-7-methyl-4,5-dihydropyrazolo[1,5-c][1,3]oxazin-3-yl]pyridin-2-yl}-2-methyl-N-propionylpropanamide] | 100% | 89% | 100% | 95% | 100% | 95% | 90% | 3.83 | 90% | 88% | 91% | 90% | 95% | 
6 | CC(=O)N(C(C)=O)c1cc(-c2c(-c3cccs3)nn3c2CCCC3)ccn1 [Example 8, N-acetyl-N-{4-[2-(2-thienyl)-4,5,6,7-tetrahydropyrazolo[1,5-a]pyridin-3-yl]pyridin-2-yl}acetamide] |  | 88% | 92% | 95% | 100% | 89% | 89% | 2.18 | 89% |  | 83% | 95% |  | 
7 | CCC(=O)N(C(=O)C1CC1)c1cc(-c2c(-c3ccc(F)cc3)nn3c2CCC3)ccn1 [Example 9, N-{4-[2-(4-fluorophenyl)-5,6-dihydro-4H-pyrrolo[1,2-b]pyrazol-3-yl]pyridin-2-yl}-N-propionylcyclopropanecarboxamide] |  |  |  | 100% | 95% | 100% |  | 2.87 | 95% | 96% | 79% | 90% | 100% | 95%
